# From patent US6873914B2, “Methods and systems for analyzing complex biological systems” (Icoria, Inc., priority 2001, dated 2005)
# What was measured:
# [1] = tested on: Saccharomyces cerevisiae wild type strain BY4743; experiment: AF1 combined gene expression and metabolite data mapped to KEGG reactions and pathways, cluster analysis; format: cell-based
# Excerpt: In AF1, two different technologies were utilized: gene expression analysis (for examination of mRNA expression) and metabolite analysis. […] As noted previously, existing metabolic databases may be helpful in practicing the methods and systems of the present invention, but many databases include limitations that make their use in data analysis and pathway mapping less than straightforward. […] This caveat to KEGG makes it difficult to pinpoint the correct pathway when attempting to link a gene to a specific pathway. […] The pathway score indicates how meaningful the mapping is, or how likely it is to be correctly indicative of the pathway involved in the perturbation under examination. […] Degree of perturbation can be calculated, for example, based on a number of standard deviations from a norm, and included in an equation such as the one shown above, so that not only the number of pathways is taken into account, but also accounts for the amount of gene transcript or compound present as compared to a control. […] KEGG links 676 compounds measured in AF1 to a total of 92 pathways. Of the 676 compounds under consideration, 77 were detected in the AF1 samples. […]
# [2] = tested on: Saccharomyces cerevisiae wild type strain BY4743; experiment: AF1 metabolite analysis (GC-MS, LC-MS) of yeast cells treated with antifungal drugs; format: cell-based
structure (smiles),measurement,setting,value
C[C@@H]1[C@H](O)[C@@H](C)/C=C/C=C/C=C/C=C/C=C/C=C/C=C/[C@H](O[C@@H]2O[C@H](C)[C@@H](O)[C@H](N)[C@@H]2O)C[C@@H]2O[C@](O)(C[C@@H](O)C[C@@H](O)[C@H](O)CC[C@@H](O)C[C@@H](O)CC(=O)O[C@H]1C)C[C@H](O)[C@H]2C(=O)O [Amphoteracin B],# Reactions Having an Enzyme and at Least One Compound Perturbed,[1],54
same,squalene and lanosterol in treated yeast cells,"[2]; AF1, 2×MIC, two hours",not
same,Fold Change: campesterol,[2]; GC,0
same,Fold Change: desmosterol,[2]; GC,0
same,Fold Change: octadecanoic acid,[2]; GC,0.21
same,Fold Change: abscisic acid,[2]; LC,0
same,Fold Change: adenosine,[2]; LC,0
same,Fold Change: riboflavin,[2]; LC,0
same,Fold Change: 4-methylcatechol,[2]; nLC,0
same,Fold Change: 5hydroxyLtryptophan,[2]; nLC,0
same,Fold Change: 6-benzylaminopurine,[2]; nLC,0
same,Fold Change: NacetylDglucosamine,[2]; nLC,0
same,Fold Change: NacetylLornithine,[2]; nLC,0
same,Fold Change: abscisic acid,[2]; nLC,0
same,Fold Change: adenine,[2]; nLC,0
same,Fold Change: adenosine,[2]; nLC,0
same,Fold Change: anthranilic acid,[2]; nLC,0
same,Fold Change: argininosuccinate,[2]; nLC,0
same,Fold Change: benzoic acid,[2]; nLC,0
same,Fold Change: catechol,[2]; nLC,0
same,Fold Change: cinnamic acid,[2]; nLC,0
same,Fold Change: citricanoic/itaconi,[2]; nLC,0
same,Fold Change: coumaric acid,[2]; nLC,0
same,Fold Change: cytosine,[2]; nLC,0
same,Fold Change: diaminopimelic acid,[2]; nLC,0
same,Fold Change: dihydrofolic acid,[2]; nLC,0
same,Fold Change: estrone,[2]; nLC,0
same,Fold Change: farnesol,[2]; nLC,0
same,Fold Change: folic acid,[2]; nLC,0
same,Fold Change: gibberellic,[2]; nLC,0
same,Fold Change: guanine,[2]; nLC,0
same,Fold Change: histidine,[2]; nLC,0
same,Fold Change: homogentisic/uric,[2]; nLC,0
same,Fold Change: hydrocortisone,[2]; nLC,0
same,Fold Change: indole3pyruvic acid,[2]; nLC,0
same,Fold Change: jasmonic acid,[2]; nLC,0
same,Fold Change: kinetin,[2]; nLC,0
same,Fold Change: luteolin,[2]; nLC,0
same,Fold Change: malonic acid,[2]; nLC,0
same,Fold Change: methionine,[2]; nLC,0
same,Fold Change: phenylpyruvic acid,[2]; nLC,0
same,Fold Change: phosphoenolpyruvate,[2]; nLC,0
same,Fold Change: pinitol,[2]; nLC,0
same,Fold Change: porphobilinogen,[2]; nLC,0
same,Fold Change: retinoic acid,[2]; nLC,0
same,Fold Change: salicylic/HObenzoic,[2]; nLC,0
same,Fold Change: shikimic acid,[2]; nLC,0
same,Fold Change: sinapinic acid,[2]; nLC,0
same,Fold Change: thymine,[2]; nLC,0
same,Fold Change: 4-aminobenzoic acid,[2]; pLC,0
same,Fold Change: 4-methylcatechol,[2]; pLC,0
same,Fold Change: 5hydroxyLtryptophan,[2]; pLC,0
same,Fold Change: 6benzylaminopurine,[2]; pLC,0
same,Fold Change: NacetylDglucosamine,[2]; pLC,0
same,Fold Change: NacetylLglutamate,[2]; pLC,0
same,Fold Change: allantoic acid,[2]; pLC,0
same,Fold Change: anthranilic acid,[2]; pLC,0
same,Fold Change: argininosuccinate,[2]; pLC,0
same,Fold Change: biotin,[2]; pLC,0
same,Fold Change: caffeine,[2]; pLC,0
same,Fold Change: citric acid TME,[2]; pLC,0
same,Fold Change: cytidine,[2]; pLC,0
same,Fold Change: cytosine,[2]; pLC,0
same,Fold Change: diaminopimelic acid,[2]; pLC,0
same,Fold Change: dihydrofolic acid,[2]; pLC,0
same,Fold Change: dipicolinic acid,[2]; pLC,0
same,Fold Change: folic acid,[2]; pLC,0
same,Fold Change: glucosamine,[2]; pLC,0
same,Fold Change: glucosamine6PO4,[2]; pLC,0
same,Fold Change: histidine,[2]; pLC,0
same,Fold Change: hydrocortisone,[2]; pLC,0
same,Fold Change: itaconic acid dimes,[2]; pLC,0
same,Fold Change: kinetin,[2]; pLC,0
same,Fold Change: luteolin,[2]; pLC,0
same,Fold Change: niacinamide,[2]; pLC,0
same,Fold Change: nopaline,[2]; pLC,0
same,Fold Change: phosphoenolpyruvate,[2]; pLC,0
same,Fold Change: progesterone,[2]; pLC,0
same,Fold Change: sugar-phosphate,[2]; pLC,0
same,Fold Change: thiamine,[2]; pLC,0
same,Fold Change: thymine,[2]; pLC,0
same,Fold Change: tryptophan,[2]; pLC,0
